# Assay results as given in patent US8809001B2, “High throughput assays for inhibitors and activators of PAQR receptors” (University of Florida Research Foundation, Inc., priority 2007, dated 2014).
# Several values for one entry are separate records, joined by “and”; a condition that tells them apart may be missing. Equal entries are not always repeated.
# Biological target: T1, mPRα (Homo sapiens, UniProt Q86WK9)
# T1 construct: Full length and truncated mPRγ and mPRα were expressed in wild type cells grown in 2% galactose from the pGREG536 vector; expressed in transfected cells; host or cells: Saccharomyces cerevisiae (BY4742 wild type; also gpa mutants), GAL1-driven plasmids (TPI1 promoter in pJK90)
# T1 sequence (Q86WK9 1-346): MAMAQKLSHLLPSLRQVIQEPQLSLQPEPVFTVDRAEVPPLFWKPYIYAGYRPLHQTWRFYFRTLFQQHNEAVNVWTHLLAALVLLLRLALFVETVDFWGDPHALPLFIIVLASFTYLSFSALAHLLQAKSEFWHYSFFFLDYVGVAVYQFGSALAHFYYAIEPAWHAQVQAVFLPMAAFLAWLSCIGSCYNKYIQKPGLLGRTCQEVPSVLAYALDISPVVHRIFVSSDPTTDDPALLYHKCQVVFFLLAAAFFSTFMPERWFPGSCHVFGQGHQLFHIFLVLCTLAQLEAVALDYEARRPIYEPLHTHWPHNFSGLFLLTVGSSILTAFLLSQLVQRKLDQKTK
# Experiment: cell-based
# Source text: Plasmids and primers. Human PAQRs were cloned into various vectors by PCR from commercially/publically available cDNAs. […] The OST4 open reading frame in pJK90 was replaced with the PAQR6 and mPRα open reading frames by gap repair. Primers for all cloning reactions are listed herein. Proteins expressed in pYES260 have an N-terminal 6×-histidine tag followed by a TEV protease cleavage site. Proteins expressed in pGREG536 have an N-terminal 7×-HA tag. Proteins expressed in the pRS316 vector are untagged. The pYES260, pRS316 and pGREG536 vectors allow for galactose-inducible expression via the GAL1 promoter. […] A pRS316-based plasmid containing the STE2 gene under the control of the GAL1 promoter (Feng et al., 2000) was kindly provided by Dr. Nicholas G. Davis (Wayne State University).
# Assays and growth conditions. Strains were maintained using standard protocol and grown in synthetic defined (SD) media with the appropriate amino acids to match the auxotrophies of the individual strains. […] In brief, overnights of cells grown in SD-glucose media were re-inoculated into iron-deficient LIM to induce the expression of FET3. […] All ligands were added to the growth medium upon re-inoculation into LIM. For experiments in which steroids were added as ligands, steroids were added from ethanol stocks and “untreated” controls are actually treated with an equal volume of ethanol to control for vehicle effects. […] All experiments were performed at least three times and a representative experiment is shown. EC50 values were obtained using the web-based BioDataFit software using sigmoidal curve-fitting. (web site changbioscience.com/stat/ec50.html)
structure (smiles),measurement,setting,value
"CC(=O)[C@H]1CC[C@H]2[C@@H]3CCC4=CC(=O)CC[C@]4(C)[C@H]3CC[C@]12C [Progesterone, progesterone]",EC50,"EC50, mPRα column of Table 4, ligand alone",2.2 nM
same,EC50,"EC50, mPRα, Table 3, iron deficient LIM, 0.05% galactose",2.3 nM and 1 to 3 nM
